Reference: patent US10512266B2, “Herbicidal compositions based on 3-phenyluracils and N-[[4-[cyclopropylamino)-carbonyl]phenyl]sulfonyl]-2-methoxybenzamide” (BASF SE, priority 2005, dated 2019)

What was measured:
Conditions in all cases: safener II alone, 150 g/ha
AMARE = assay: Greenhouse post-emergence test, herbicidal action against AMARE; format: in vivo, common amaranth
Source text: (§1) For the post-emergence treatment, the test plants were first grown to a height of 3 to 20 cm, depending on the plant habit, and only then treated. Here, the herbicidal compositions were suspended or emulsified in water as distribution medium and sprayed using finely distributing nozzles. The respective component I was formulated as a 12% by weight strength emulsion concentrate, and component II as a 10% by weight suspension concentrate. Optionally components III can be used in their appropriate available formulation types. The components I, II and optionally III were introduced to the spray liquid with the amount of solvent system used for applying the active compound. The test period extended over 21 days. During this time, the plants were tended, and their response to the treatments with active compound was evaluated. The evaluation for the damage caused by the chemical compositions was carried out using a scale from 0 to 100%, compared to the untreated control plants. Here, 0 means no damage and 100 means complete destruction of the plants. [table]

TRZAS = assay: Greenhouse post-emergence test, damage to crop plant TRZAS; format: in vivo, spring wheat
Source text: as §1, with “[table]” left out

CHEAL = assay: Greenhouse post-emergence test, herbicidal action against CHEAL; format: in vivo, lambsquaters
Source text: as §1

HORVW = assay: Greenhouse post-emergence test, damage to crop plant HORVW; format: in vivo, winter barley
Source text: as §1, with “[table]” left out

POLCO = assay: Greenhouse post-emergence test, herbicidal action against POLCO; format: in vivo, wild buckwheat
Source text: as §1

ABUTH = assay: Greenhouse post-emergence test, herbicidal action against ABUTH; format: in vivo, velvetleaf
Source text: as §1

ZEAMX = assay: Greenhouse post-emergence test, damage to crop plant ZEAMX; format: in vivo, corn
Source text: as §1, with “[table]” left out

COc1ccccc1C(=O)NS(=O)(=O)c1ccc(C(=O)NC2CC2)cc1 [II, N-[[4-[(cyclopropylamino)carbonyl]phenyl]sulfonyl]-2-methoxybenzamide]
herbicidal activity on AMARE (AMARE): has not shown herbicidal activity
damaging effect on TRZAS (TRZAS): has not shown damaging effect
herbicidal activity on CHEAL (CHEAL): has not shown herbicidal activity
damaging effect on HORVW (HORVW): has not shown damaging effect
herbicidal activity on POLCO (POLCO): has not shown herbicidal activity
herbicidal activity on ABUTH (ABUTH): has not shown herbicidal activity
damaging effect on ZEAMX (ZEAMX): has not shown damaging effect
